Data reported in ChEMBL document CHEMBL1154798, “Aminocaprophenone- and pyrrolidine-type alkaloids from the leaves of Ficus septica” (J Nat Prod, 2009).

Legend:
HeLa = experiment: Cytotoxicity against human HeLa cells after 48 hrs by WST8 colorimetric assay; format: functional, cell-based
[1] = Cytotoxicity against human ACC-MESO1 cells after 48 hrs by WST8 colorimetric assay; format: functional, cell-based; details: ACC-MESO-1, 48 h

| SMILES | IC50 (HeLa) | IC50 [1] |
| --- | --- | --- |
| COc1cc2c3c(c4ccc(OC)c(OC)c4c2cc1OC)[C@H](O)[C@@H]1CCC[N+]1([O-])C3 (stereo partly specified) | 7.1 µM | 28 µM |
| COc1cc(C(=O)CCCCCN(C)C)ccc1O [FICUSEPTAMINE A] | 57 µM | 160 µM |
| COc1ccc(C(=O)CCCCCN(C)C)cc1O [FICUSEPTAMINE B] | 23 µM | 72 µM |
| COc1cc(C(=O)CC2CCC[N+]2(C)C)ccc1O (stereo unspecified) [FICUSEPTAMINE C] | > 160 µM | > 160 µM |
| COc1cc(C(=O)CC2CCCN2C)ccc1O (stereo unspecified) [PHYLLOSTERONE] | > 160 µM | > 160 µM |
| CC(=O)c1ccc(O)c(O[C@@H]2O[C@H](CO)[C@@H](O)[C@H](O)[C@H]2O)c1 [PUNGENIN] | > 160 µM | > 160 µM |
| COc1ccc(C2=C(c3ccc(OC)c(OC)c3)CN3CCC[C@@H]3C2)cc1OC [SEPTICINE] | 38 µM | 63 µM |
| COc1cc2c3c(c4cc(OC)c(OC)cc4c2cc1OC)CN1CCC[C@@H]1C3 [TYLOPHORINE] | 3.1 µM | 12 µM |
